Experimental findings from patent US7358276B2, “2-Oxo-1-pyrrolidine derivatives, processes for preparing them and their uses” (UCB, S.A., priority 2000, dated 2008) are described below.

Molecules are shown by their SMILES.

T1 sequence (Q02563 whole entry): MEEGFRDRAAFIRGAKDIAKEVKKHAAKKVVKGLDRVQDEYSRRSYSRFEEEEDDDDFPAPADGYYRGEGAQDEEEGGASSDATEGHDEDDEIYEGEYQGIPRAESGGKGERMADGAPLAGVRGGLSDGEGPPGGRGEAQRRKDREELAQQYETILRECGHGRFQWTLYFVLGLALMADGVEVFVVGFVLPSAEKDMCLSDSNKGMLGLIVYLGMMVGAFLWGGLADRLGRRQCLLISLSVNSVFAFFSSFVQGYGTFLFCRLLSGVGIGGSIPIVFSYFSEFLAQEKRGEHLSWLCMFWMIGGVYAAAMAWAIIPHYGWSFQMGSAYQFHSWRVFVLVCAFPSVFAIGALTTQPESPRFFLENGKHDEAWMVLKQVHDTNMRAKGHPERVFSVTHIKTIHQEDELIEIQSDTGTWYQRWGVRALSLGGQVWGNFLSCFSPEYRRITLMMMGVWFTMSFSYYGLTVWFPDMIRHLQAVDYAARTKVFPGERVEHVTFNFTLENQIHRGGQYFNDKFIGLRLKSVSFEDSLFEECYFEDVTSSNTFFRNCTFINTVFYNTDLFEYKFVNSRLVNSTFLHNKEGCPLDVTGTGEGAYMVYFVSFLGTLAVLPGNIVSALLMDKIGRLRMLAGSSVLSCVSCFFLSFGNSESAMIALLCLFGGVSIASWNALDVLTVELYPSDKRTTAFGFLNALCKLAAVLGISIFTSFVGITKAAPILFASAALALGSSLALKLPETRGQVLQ

This test has as its target T1, Levetiracetam Binding Site (LBS), rat cerebral cortex membranes (Rattus norvegicus, UniProt Q02563).
T1 construct: The crude membrane pellet obtained is resuspended in 50 mmol/l Tris-HCl (pH 7.4); from tissue; host or cells: rat cerebral cortex crude membranes (male Sprague-Dawley)
Put plainly: LBS binding assay (competitive binding, [3H]-2-[4-(3-azidophenyl)-2-oxo-1-pyrrolidinyl]butanamide). Conditions: 4° C., 120 min.
As for `CC[C@@H](C(N)=O)N1CC(CN=C=S)CC1=O` (stereo partly drawn) [Compound 49, (2S)-2-[4-(isothiocyanatomethyl)-2-oxo-1-pyrrolidinyl]butanamide], the “pKi (affinity for the levetiracetam binding site)” value (“pKi” for short) is “Particular affinity”. Regarding `C=CCC(C(N)=O)N1CC(CCC)CC1=O` (stereo not shown) [Compound 351], the “pKi” value is on record as “Particular affinity”.

For `CC[C@@H](C(N)=O)N1CC(CCl)CC1=O` (stereo partly drawn) [Compound 30, (2S)-2-[4-(chloromethyl)-2-oxo-1-pyrrolidinyl]butanamide], the “pKi” value is listed as “Particular affinity”. For `CCC(C(N)=O)N1CC(c2ccc(Cl)cc2)CC1=O` (stereo not shown) [Compound 169] the value was “Particular affinity”. As for `CC[C@@H](C(N)=O)N1CC(c2ccc(-c3ccccc3)cc2)CC1=O` (stereo partly shown) [Compound 98], the entry is “Particular affinity”; as for `CCCC1CC(=O)N(C(CCC)C(N)=O)C1` (stereo not shown) [Compound 304], “Particular affinity”; as for `CCC(C(N)=O)N1CC(c2ccccc2C(F)(F)F)CC1=O` (stereo not shown) [Compound 171], “Particular affinity”. As for `CC[C@@H](C(N)=O)N1CC(CC(C)(C)C)CC1=O` (stereo partly drawn) [Compound 149, (2S)-2-(4-neopentyl-2-oxo-1-pyrrolidinyl)butanamide], the entry is “Particular affinity”; as for `CC[C@@H](C(N)=O)N1CC(c2cccs2)CC1=O` (stereo partly drawn) [Compound 72, (2S)-2-[2-oxo-4-(2-thienyl)-1-pyrrolidinyl]butanamide], “Particular affinity”; as for `CC[C@@H](C(N)=O)N1CC(COS(=O)(=O)c2ccc(C)cc2)CC1=O` (stereo partly drawn) [Compound 31, {1-[(1S)-1-(aminocarbonyl)propyl]-5-oxo-3-pyrrolidinyl}methyl 4-methylbenzenesulfonate], “Particular affinity”. Regarding `CCC(C(N)=O)N1CC(CC(F)F)CC1=O` (stereo not shown) [Compound 157, 2-[4-(2,2-difluoroethyl)-2-oxo-1-pyrrolidinyl]butanamide], the “pKi” value was “Particular affinity”.

Turning to `CC[C@@H](C(N)=O)N1CC(CO[N+](=O)[O-])CC1=O` (stereo partly drawn) [Compound 38, {1-[(1S)-1-(aminocarbonyl)propyl]-5-oxo-3-pyrrolidinyl}methyl Nitrate], the “pKi” value is on record as “Particular affinity”.

With `CCC(C(N)=O)N1CC(c2ccccc2F)CC1=O` (stereo not shown) [Compound 173], the “pKi” value is recorded as “Particular affinity”.

Consider `CCC(C(N)=O)N1CC(c2cccc(Cl)c2)CC1=O` (stereo not shown) [Compound 170], for which the “pKi” value is “Particular affinity”. Turning to `CCCCCC1CC(=O)N(C(CC)C(N)=O)C1` (stereo not shown) [Compound 142], the “pKi” value is given as “Particular affinity”. For `CCCC1CC(=O)N(C(C)C(N)=O)C1` (stereo not shown) [Compound 119] the value was “Particular affinity”.

Turning to `CCCC1CC(=O)N(C(CC)C(N)=O)C1` (stereo not shown) [Compound 127, 2-(2-oxo-4-propyl-1-pyrrolidinyl)butanamide], the “pKi” value is reported as “Particular affinity”.

On to `CC[C@@H](C(N)=O)N1CC(CC(C)I)CC1=O` (stereo partly drawn) [Compound 225, (2S)-2-[4-(2-iodopropyl)-2-oxo-1-pyrrolidinyl]butanamide], for which the “pKi” value was “Particular affinity”.

For the molecule `CCC(C(N)=O)N1CC(c2cccc(Cl)c2)CC1=O` (stereo not shown) [Compound 205, 2-[4-(3-chlorophenyl)-2-oxo-1-pyrrolidinyl]butanamide], the “pKi” value is given as “Particular affinity”.

For `CCCC1CC(=O)N(C(CC2CC2)C(N)=O)C1` (stereo not shown) [Compound 306], the “pKi” value is on record as “Particular affinity”.

On to `CCCC1CC(=O)N(C(Cc2cscn2)C(N)=O)C1` (stereo not shown) [Compound 350], for which the “pKi” value is listed as “Particular affinity”.

Consider `CCC(C(N)=O)N1CC(CS(=O)(=O)c2ccccc2)CC1=O` (stereo not shown) [Compound 43], for which the “pKi” value is given as “Particular affinity”.
